This is an account of results in patent publication US20220047566A1, “LONG ACTING IN-SITU FORMING/GELLING COMPOSITIONS” (Humanwell Pharmaceutical US, priority 2020, published 2022).

Structures can show the parent of a compound that is named as a salt.

For this experiment, the system named is skin incision. The experiment in a line: Mini-pig skin incision model, Von Frey test. Format: in vivo. The note with it: subcutaneous into both sides of incision. On the procedure: Mini-pig skin incision model was used to test the anesthetic efficacy of some formulations. Mini pig was used in this model due to the similarities of their skin to humans. Mini pigs (9-12 kg) were randomly assigned for test groups. Under isoflurane anesthesia and sterile surgical conditions, a 6 cm long incision was made through skin in the rear left flank. The test drugs were administered subcutaneously into both sides of incision. The wound was then closed by continuous suture. After surgery the mini pig received antibiotic amoxicillin injection for 3 days as wound care. The efficacy of test drugs was evaluated by Von Frey test. At desired time point, an electrical automatic Von Frey was used to apply force about 0.5 cm to the incision. If operator observed the contraction of skin/muscle, or the applied force was over 100 g, the operator stopped the test and record the read of applied force. The response baseline of all mini pigs was tested and the pain threshold was set to the middle of baseline and 100 g. If the response force was higher than pain threshold value then there was anesthesia efficacy, vice versa.

For `CCCCN1CCCC[C@H]1C(=O)Nc1c(C)cccc1C` [levobupivacaine HCl], the “duration of anesthesia efficacy” value is reported as “about 4 hours”.
